Laboratory results from ChEMBL document CHEMBL4680060, “Polybasic peptide-levofloxacin conjugates potentiate fluoroquinolones and other classes of antibiotics against multidrug-resistant Gram-negative bacteria” (Medchemcomm, 2019).
In brackets after ≈: the same amount, converted by molar mass.

Experiments:
[1] = test system: Staphylococcus epidermidis; assay: Antibacterial activity against methicillin-susceptible Staphylococcus epidermidis clinical isolate CANWARD-2008 81388 assessed as inhibition of visible growth incubated for 18 hrs by CLSI protocol based microbroth dilution method; type: functional
Enterobacter cloacae = assay: Antibacterial activity against Enterobacter cloacae 117029 assessed as inhibition of visible growth incubated for 18 hrs by CLSI protocol based microbroth dilution method; type: functional
Staphylococcus aureus [2] = assay: Antibacterial activity against Staphylococcus aureus ATCC 29213 assessed as inhibition of visible growth incubated for 18 hrs by CLSI protocol based microbroth dilution method; type: functional
Escherichia coli = assay: Antibacterial activity against Escherichia coli ATCC 25922 assessed as inhibition of visible growth incubated for 18 hrs by CLSI protocol based microbroth dilution method; type: functional
[3] = test system: Stenotrophomonas maltophilia; assay: Antibacterial activity against Stenotrophomonas maltophilia clinical isolate CAN-ICU 62584 assessed as inhibition of visible growth incubated for 18 hrs by CLSI protocol based microbroth dilution method; type: functional
Pseudomonas aeruginosa [4] = assay: Potentiation of ciprofloxacin-induced antibacterial activity against wild type Pseudomonas aeruginosa PAO1 assessed as ciprofloxacin MIC measured after 18 hrs by CLSI protocol based microbroth dilution method (reference value: 0.125 ug/ml); type: functional
Staphylococcus aureus [5] = assay: Antibacterial activity against methicillin-resistant Staphylococcus aureus clinical isolate CAN-ICU 61589 assessed as inhibition of visible growth incubated for 18 hrs by CLSI protocol based microbroth dilution method; type: functional
Klebsiella pneumoniae = assay: Antibacterial activity against Klebsiella pneumoniae 116381 assessed as inhibition of visible growth incubated for 18 hrs by CLSI protocol based microbroth dilution method; type: functional
Pseudomonas aeruginosa [6] = assay: Antibacterial activity against Pseudomonas aeruginosa ATCC 27853 assessed as inhibition of visible growth incubated for 18 hrs by CLSI protocol based microbroth dilution method; type: functional
Pseudomonas aeruginosa [7] = assay: Potentiation of levofloxacin-induced antibacterial activity against wild type Pseudomonas aeruginosa PAO1 assessed as levofloxacin MIC measured after 18 hrs by CLSI protocol based microbroth dilution method (reference value: 0.5 ug/ml); type: functional
Pseudomonas aeruginosa [8] = assay: Potentiation of moxifloxacin-induced antibacterial activity against wild type Pseudomonas aeruginosa PAO1 assessed as moxifloxacin MIC measured after 18 hrs by CLSI protocol based microbroth dilution method (reference value: 1 ug/ml); type: functional
Streptococcus pneumoniae = assay: Antibacterial activity against Streptococcus pneumoniae ATCC 49619 assessed as inhibition of visible growth incubated for 18 hrs by CLSI protocol based microbroth dilution method; type: functional
Acinetobacter baumannii = assay: Antibacterial activity against Acinetobacter baumannii clinical isolate CAN-ICU 63169 assessed as inhibition of visible growth incubated for 18 hrs by CLSI protocol based microbroth dilution method; type: functional
Staphylococcus aureus [9] = assay: Antibacterial activity against methicillin-resistant Staphylococcus aureus ATCC 33592 assessed as inhibition of visible growth incubated for 18 hrs by CLSI protocol based microbroth dilution method; type: functional
Enterococcus faecalis = assay: Antibacterial activity against Enterococcus faecalis ATCC 29212 assessed as inhibition of visible growth incubated for 18 hrs by CLSI protocol based microbroth dilution method; type: functional
Pseudomonas aeruginosa [10] = assay: microbe, parasite or virus in culture; conditions: PAO1, 18 h
Pseudomonas aeruginosa [11] = assay: microbe, parasite or virus in culture; conditions: PAO1, 18 h; remark: listed apart in the source
Pseudomonas aeruginosa [12] = assay: microbe, parasite or virus in culture; conditions: PAO1, 18 h; remark: listed apart in the source

Compound | MIC [1] | MIC (Enterobacter cloacae) | MIC (Staphylococcus aureus [2]) | MIC (Escherichia coli) | MIC [3] | MIC (Pseudomonas aeruginosa [4]) | MIC (Staphylococcus aureus [5]) | MIC (Klebsiella pneumoniae) | MIC (Pseudomonas aeruginosa [6]) | MIC (Pseudomonas aeruginosa [7]) | MIC (Pseudomonas aeruginosa [8]) | MIC (Streptococcus pneumoniae) | MIC (Acinetobacter baumannii) | MIC (Staphylococcus aureus [9]) | MIC (Enterococcus faecalis) | MIC (Pseudomonas aeruginosa [10]) | MIC (Pseudomonas aeruginosa [11]) | MIC (Pseudomonas aeruginosa [12])
C[C@H]1COc2c(N3CCN(C)CC3)c(F)cc3c(=O)c(C(=O)N[C@@H](CCN)C(N)=O)cn1c23 | > 128 µg/mL | > 128 µg/mL | > 128 µg/mL | 128 µg/mL (≈ 278 µM) | > 128 µg/mL | 0.125 µg/mL | > 128 µg/mL | > 128 µg/mL | > 128 µg/mL | 0.5 µg/mL | 1 µg/mL | > 128 µg/mL | > 128 µg/mL | > 128 µg/mL | > 128 µg/mL | – | – | –
C[C@H]1COc2c(N3CCN(C)CC3)c(F)cc3c(=O)c(C(=O)N[C@H](CN)CCC(=O)O)cn1c23 | > 128 µg/mL | > 128 µg/mL | > 128 µg/mL | > 128 µg/mL | > 128 µg/mL | 0.125 µg/mL | > 128 µg/mL | > 128 µg/mL | > 128 µg/mL | 0.5 µg/mL | 1 µg/mL | > 128 µg/mL | > 128 µg/mL | > 128 µg/mL | > 128 µg/mL | – | – | –
COc1c(N2C[C@@H]3CCCN[C@@H]3C2)c(F)cc2c(=O)c(C(=O)O)cn(C3CC3)c12 [MOXIFLOXACIN] | – | – | – | – | – | – | – | – | – | – | – | – | – | – | – | 8 µg/mL (≈ 19.9 µM) | 16 µg/mL (≈ 39.9 µM) | 8 µg/mL (≈ 19.9 µM)
C[C@H]1COc2c(N3CCN(C)CC3)c(F)cc3c(=O)c(C(=O)N[C@@H](CCN)C(=O)N[C@@H](CCN)C(N)=O)cn1c23 | > 128 µg/mL | > 128 µg/mL | > 128 µg/mL | 128 µg/mL (≈ 228 µM) | > 128 µg/mL | 0.125 µg/mL | > 128 µg/mL | > 128 µg/mL | > 128 µg/mL | 0.25 µg/mL | 1 µg/mL | > 128 µg/mL | > 128 µg/mL | > 128 µg/mL | > 128 µg/mL | – | – | –
C[C@H]1COc2c(N3CCN(C)CC3)c(F)cc3c(=O)c(C(=O)NCCCCCCCCCCCC(=O)N[C@@H](CCN)C(N)=O)cn1c23 | 64 µg/mL (≈ 97.3 µM) | 128 µg/mL (≈ 195 µM) | 128 µg/mL (≈ 195 µM) | > 128 µg/mL | > 128 µg/mL | 0.063 µg/mL | 128 µg/mL (≈ 195 µM) | > 128 µg/mL | > 128 µg/mL | 0.25 µg/mL | 1 µg/mL | > 128 µg/mL | > 128 µg/mL | > 128 µg/mL | > 128 µg/mL | – | – | –
C[C@H]1COc2c(N3CCN(C)CC3)c(F)cc3c(=O)c(C(=O)N[C@@H](CCC(=O)O)C(=O)N[C@H](CN)CCC(=O)O)cn1c23 | > 128 µg/mL | > 128 µg/mL | > 128 µg/mL | 128 µg/mL (≈ 212 µM) | 16 µg/mL (≈ 26.5 µM) | 0.125 µg/mL | > 128 µg/mL | > 128 µg/mL | > 128 µg/mL | 0.5 µg/mL | 1 µg/mL | > 128 µg/mL | > 128 µg/mL | > 128 µg/mL | > 128 µg/mL | – | – | –
C[C@H]1COc2c(N3CCN(C)CC3)c(F)cc3c(=O)c(C(=O)O)cn1c23.C[C@H]1COc2c(N3CCN(C)CC3)c(F)cc3c(=O)c(C(=O)O)cn1c23.O [LEVOFLOXACIN] | ≤ 0.25 µg/mL | 0.125 µg/mL | ≤ 0.25 µg/mL | ≤ 0.25 µg/mL | 4 µg/mL | – | > 128 µg/mL | 128 µg/mL | – | – | – | – | 1 µg/mL | ≤ 0.25 µg/mL | 2 µg/mL | 16 µg/mL | 16 µg/mL | –
O=C(O)c1cn(C2CC2)c2cc(N3CCNCC3)c(F)cc2c1=O [CIPROFLOXACIN] | – | – | – | – | – | – | – | – | – | – | – | – | – | – | – | 16 µg/mL (≈ 48.3 µM) | – | 32 µg/mL (≈ 96.6 µM)
